# According to patent US20220117938A1, “COMBINATON THERAPY WITH A DON PRODRUG AND AN IMMUNE CHECKPOINT INHIBITOR” (DRACEN PHARMACEUTICALS, INC., priority 2019, published 2022):
# pIC50: −log10 of the molar value.
# Test system: Ninety four (94) cell lines and PBMC
# Assay: Cell viability assay, SRB staining, 94 cell lines and PBMC (Example 7, Experiment 2)
# Type: cell-based
# Experimental: Ninety four (94) cell lines were seeded at a density varying from 500 to 7000 cells/well depending on their growth characteristics. PBMC were seeded at the density 50,000-100,000 cells/well. Cells were incubated for 48 h prior to compound treatment. Compound 1 and DON were evaluated at a concertation range of 1 nM up to 100 μM. Compound 1 dilutions in DMSO and DON dilutions in PBS were performed in 96-well 0.5 mL plates (Greiner Bio-One, Germany). Compounds were then diluted 1:100 in RPMI medium. […] of cells were treated by mixing with 10 μL of the compound-containing media (resulting in a final DMSO concentration of 0.1%). The cells were allowed to grow at 37° C. for 120 h. Cells were fixed to the surface by addition of 10% TCA (for adherent growing cells) or 50% TCA (for semi-adherent growing cells or cells growing in suspension). After an hour of incubation at 4° C., plates were washed twice with 400 μL of deionized water and dried. Cells were then stained with 100 μL of 0.04% wt/v SRB. The plates were incubated at room temperature for at least 30 min and washed six times with 1% acetic acid to remove unbound stain. The plates were left to dry at room temperature and bound SRB was solubilized with 100 μL of 10 mM Tris base. Optical density was measured at 492, 520 and 560 nm using a Deelux-LED96 plate reader (Deelux Labortechnik GmbH, Germany).
# Cell lines were purchased directly from the ATCC, NCI, CLS, and DSMZ cell line collections. A master bank and working aliquots were prepared. Cells used for the study had undergone less than 20 passages. To rule out potential contamination or wrong assignment, all cell lines were tested by STR analysis. Absence of mycoplasma contamination was confirmed for all cell lines used in the studies.
# The cell lines were grown in the media recommended by the suppliers in the presence of 100 U/mL penicillin and 100 μg/mL streptomycin supplied with 10% FCS (PAA, Germany). RPMI 1640, DMEM, and MEM Earle's medium were from PAA (Coelbe, Germany), supplements 2 mM L-glutamine, 1 mM Na-pyruvate and 1% NEAA were from PAA (Coelbe, Germany), 2.5% horse serum, hydrocortisone, transferin, beta-estradiol, selenite and 1 U/mL insulin from Sigma-Aldrich (Munich, Germany). RPMI medium was used for culturing the following cell lines: 5637, 22RV1, 7860, A2780, A431, A549, ACHN, ASPC1, BT20, BXPC3, CAKI1, CLS439, COLO205, COLO678, DLD1, DU145, EFO21, EJ28, HCT15, HS578T, IGROV1, JAR, LOVO, MCF7, MDA MB231, MDA MB435, MDA MB436, MDA MB468, MHHES1, MT3, NCI H292, NCI H358M, NCI H460, NCIH82, OVCAR3, OVCAR4, PANC 1005 (addition of insulin), PBMC, PC3, RDES, SF268, SF295, SKBR3, SK MEL28, SKMEL5, SKOV3, SW620, U2OS, UMUC3, and U031.
# DMEM medium was used to culture A204, A375, A673, C33A, CASKI, HCT116, HEPG2, HS729, HT29, J82, MG63, MIAPACA2 (addition of horse serum), PANC1, PLCPRF5, RD, SAOS2, SKLMS1, SKNAS, SNB75, T24, and TE671.
# MEM Earle's medium was used for CACO2, CALU6, HEK293, HELA, HT1080, IMR90, JEG3, JIMT1, SKHEP1, SKNSH, and U87MG. Cell seeding conditions were optimized for each cell line. The cell seeding density varied from 500 to 7000 cells/well depending on their growth characteristics. Peripheral blood mononuclear cells (PBMC) were freshly isolated from whole blood of an anonymous donor through density gradient centrifugation using Ficoll solution (d=1.077). In short, blood was diluted 1:1 with PBS and carefully placed on the Ficoll. After centrifugation 1000×g for 15 min (braking rate 0), the ring containing mainly leucocytes was collected in PBS followed by three times washing with PBS to reduce the platelets. PBMC were seeded at the density 50,000-100,000 cells/well. Cells were grown in 5% CO2 atmosphere in a NB-203XXL incubator (N-BIOTEK Inc., Korea).
# Ninety-four cell lines were tested in parallel. Cell growth and treatment were performed in 96 well microtitre plates CELLSTAR® (Greiner Bio-One, Germany). […]
# [1] = Homo sapiens, 22Rv1, 22RV1, prostate
# [2] = Homo sapiens, 786-0, 786O, kidney
# [3] = Homo sapiens, A204, A204, muscle
# [4] = Homo sapiens, A673, A673, muscle
# [5] = Homo sapiens, A2780, A2780, ovary
# [6] = Homo sapiens, A-375, A375, skin
# [7] = Homo sapiens, A-431, A431, skin
# [8] = Homo sapiens, ASPC1, ASPC1, pancreas
# [9] = Homo sapiens, BT-20, BT20, breast
# [10] = Homo sapiens, C-33-A, C33A, endometrial
# [11] = Homo sapiens, CAKI-1, CAKI1, kidney
# [12] = Homo sapiens, COLO 205, COLO205, colon
# [13] = Homo sapiens, COLO-678, COLO678, colon
# [14] = Homo sapiens, Ca-Ski, CASKI, endometrial
# [15] = Homo sapiens, Caco-2, CACO2, colon
# [16] = Homo sapiens, Calu-6, CALU6, lung
# [17] = Homo sapiens, DLD-1, DLD1, colon
# [18] = Homo sapiens, DU-145, DU145, prostate
# [19] = Homo sapiens, EFO-21, EFO21, ovary
# [20] = Homo sapiens, EJ-28, EJ28, bladder
# [21] = Homo sapiens, Granta-519, GRANTA-519, hematological
# [22] = Homo sapiens, HCT-15, HCT15, colon
# [23] = Homo sapiens, HCT-116, HCT116, colon
# [24] = Homo sapiens, HEK293, HEK293, kidney
# [25] = Homo sapiens, HL-60, HL-60, hematological
# [26] = Homo sapiens, HT-29, HT29, colon
# [27] = Homo sapiens, HT-1080, HT1080, connective tissue
# [28] = Homo sapiens, HeLa, endometrial
# [29] = Homo sapiens, HepG2, HEPG2, liver
# [30] = Homo sapiens, IGROV-1, IGROV1, ovary
# [31] = Homo sapiens, JEG-3, JEG3, placenta
# [32] = Homo sapiens, JIMT-1, JIMT1, breast
# [33] = Homo sapiens, K562, K-562, hematological
# [34] = Homo sapiens, Kasumi 1, KASUMI-1, hematological
# [35] = Homo sapiens, L-363, L-363, hematological
# [36] = Homo sapiens, MCF7, MCF7, breast
# [37] = Homo sapiens, MDA-MB-231, MDAMB231, breast
# [38] = Homo sapiens, MDA-MB-435, MDAMB435, skin
structure (smiles),measurement,setting,value
"[N-]=[N+]=CC(=O)CC[C@H](N)C(=O)O [DON, 6-Diazo-5-oxo-L-norleucine, reference compound]",pIC50,"5637, bladder",6.06
same,pIC50,"CLS439, bladder",5.11
same,GI50,[1],0.981 µM
same,pIC50,[1],5.98
same,GI50,[2],2.39 µM
same,pIC50,[2],5.53
same,GI50,[3],4.99 µM
same,pIC50,[3],4.77
same,GI50,"Homo sapiens, A549, A549, lung",4.05 µM
same,pIC50,"Homo sapiens, A549, A549, lung",5.35
same,GI50,[4],1.95 µM
same,pIC50,[4],5.66
same,GI50,[5],3.65 µM
same,pIC50,[5],5.41
same,GI50,[6],3.15 µM
same,pIC50,[6],5.48
same,GI50,[7],6.5 µM
same,pIC50,[7],5.07
same,GI50,"Homo sapiens, ACHN, kidney",5.34 µM
same,pIC50,"Homo sapiens, ACHN, kidney",5.20
same,GI50,[8],3.92 µM
same,pIC50,[8],5.25
same,GI50,[9],16.8 µM
same,pIC50,[9],4.29
same,GI50,"Homo sapiens, BXPC-3, BXPC3, pancreas",1.45 µM
same,GI50,[10],6.48 µM
same,pIC50,[10],5.15
same,GI50,[11],1.16 µM
same,pIC50,[11],5.79
same,GI50,[12],1.32 µM
same,pIC50,[12],5.70
same,GI50,[13],58.9 µM
same,pIC50,[13],3.82
same,GI50,[14],5.49 µM
same,pIC50,[14],5.19
same,GI50,[15],11.2 µM
same,pIC50,[15],4.73
same,GI50,[16],6.05 µM
same,pIC50,[16],5.16
same,GI50,[17],0.906 µM
same,pIC50,[17],5.99
same,GI50,[18],5.24 µM
same,pIC50,[18],5.21
same,GI50,[19],6.32 µM
same,pIC50,[19],4.84
same,GI50,[20],4.19 µM
same,pIC50,[20],5.31
same,GI50,[21],0.779 µM
same,pIC50,[21],6.09
same,GI50,[22],1.13 µM
same,pIC50,[22],5.89
same,GI50,[23],2.06 µM
same,pIC50,[23],5.68
same,GI50,[24],10.6 µM
same,pIC50,[24],4.82
same,GI50,[25],1.56 µM
same,pIC50,[25],5.80
same,GI50,[26],2.89 µM
same,pIC50,[26],5.47
same,GI50,[27],0.666 µM
same,pIC50,[27],6.10
same,GI50,[28],8.17 µM
same,pIC50,[28],5.04
same,GI50,[29],7.3 µM
same,pIC50,[29],5.05
same,GI50,"Homo sapiens, Hs-578T, HS578T, breast",25.1 µM
same,GI50,[30],6.99 µM
same,pIC50,[30],4.99
same,GI50,"Homo sapiens, IMR-90, IMR90, lung",11.8 µM
same,GI50,[31],5.79 µM
same,pIC50,[31],5.18
same,GI50,[32],11.2 µM
same,pIC50,[32],4.57
same,GI50,[33],1.06 µM
same,pIC50,[33],5.93
same,GI50,[34],5.17 µM
same,pIC50,[34],4.90
same,GI50,[35],0.343 µM
same,pIC50,[35],6.28
same,GI50,"Homo sapiens, LoVo, colon",4.36 µM
same,pIC50,"Homo sapiens, LoVo, colon",5.33
same,GI50,[36],2.09 µM
same,pIC50,[36],5.22
same,GI50,[37],8.37 µM
same,pIC50,[37],4.86
same,GI50,[38],2.48 µM
same,pIC50,[38],5.58
same,GI50,"Homo sapiens, MDA-MB-436, MDAMB436, breast",13.3 µM
